Source: patent US20230117034A1, “PYRAZOLOTRIAZINES” (Bayer Aktiengesellschaft, priority 2019, published 2023)
Read-outs that look alike come from different tables or passages of the source.

Legend:
CDK2/CycE = target: T1, CDK2/CycE (Homo sapiens, UniProt P24941); test: CDK2/CycE kinase assay (TR-FRET, 2 mM ATP); format: biochemical; settings: 2 mM ATP (high ATP); median; read-out: CDK2/CyclinE, 2 mM ATP (high ATP), IC50 (median)
T1 construct: purchased ProQinase GmbH (Freiburg, Germany); host or cells: insect cells (Sf9)
In short: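 Biotin-peptide phosphorylation (0.75 µM substrate, 2 mM ATP final, 25 min, 22 °C) by Sf9-expressed GST-CDK2/GST-CycE, after a 15-min compound pre-binding step. Inhibition scaled between enzyme-free (100%) and uninhibited (0%) wells.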

[1] = system: CAL-120, human breast adenocarcinoma cells; test: Proliferation assay CAL-120 (crystal violet, 4 days); format: cell-based; settings: Homo sapiens, CAL-120 cells, median, read-out: Prolif-CAL-120, IC50-[mol/l] (median)
In short: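 IC50 from a 4-parameter fit of crystal violet absorbance (595 nm), scaled between a day-0 plate (0%) and untreated wells (100%). Cells grown in 10% FCS medium were exposed to test substances at 0.01-10 µmol/L for 4 days, 0.1% DMSO final.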

[2] = target: T2, CDK12 (nuclear staining in CAL-120 cells) (Homo sapiens, UniProt Q9NYV4); test: CDK12 nuclear protein level: immunofluorescence/high content analysis (CAL-120); format: cell-based; settings: for DC50: CAL-120 cells, 24 h, immunofluorescence, 50% reduction of nuclear CDK12 staining intensity, median, read-out: CDK12 degradation IF, DC50- [mol/l] (median); for (IC50 CDK12 high ATP) to (Degradation DC50 CDK12) ratio: ratio of IC50 CDK12 high ATP kinase assay to DC50 CDK12 degradation (IF, CAL-120)
T2 construct: endogenous in cells; host or cells: CAL-120 human breast cancer cells (DSMZ ACC 459)
In short: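 DC50 is the degrader concentration that halves nuclear CDK12 immunofluorescence relative to controls, measured by high-content imaging. CAL-120 cells were exposed to compound for 24 h at 37 °C before PFA fixation, and signal was normalized to DMSO and control wells.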

T2 sequence (Q9NYV4 whole entry): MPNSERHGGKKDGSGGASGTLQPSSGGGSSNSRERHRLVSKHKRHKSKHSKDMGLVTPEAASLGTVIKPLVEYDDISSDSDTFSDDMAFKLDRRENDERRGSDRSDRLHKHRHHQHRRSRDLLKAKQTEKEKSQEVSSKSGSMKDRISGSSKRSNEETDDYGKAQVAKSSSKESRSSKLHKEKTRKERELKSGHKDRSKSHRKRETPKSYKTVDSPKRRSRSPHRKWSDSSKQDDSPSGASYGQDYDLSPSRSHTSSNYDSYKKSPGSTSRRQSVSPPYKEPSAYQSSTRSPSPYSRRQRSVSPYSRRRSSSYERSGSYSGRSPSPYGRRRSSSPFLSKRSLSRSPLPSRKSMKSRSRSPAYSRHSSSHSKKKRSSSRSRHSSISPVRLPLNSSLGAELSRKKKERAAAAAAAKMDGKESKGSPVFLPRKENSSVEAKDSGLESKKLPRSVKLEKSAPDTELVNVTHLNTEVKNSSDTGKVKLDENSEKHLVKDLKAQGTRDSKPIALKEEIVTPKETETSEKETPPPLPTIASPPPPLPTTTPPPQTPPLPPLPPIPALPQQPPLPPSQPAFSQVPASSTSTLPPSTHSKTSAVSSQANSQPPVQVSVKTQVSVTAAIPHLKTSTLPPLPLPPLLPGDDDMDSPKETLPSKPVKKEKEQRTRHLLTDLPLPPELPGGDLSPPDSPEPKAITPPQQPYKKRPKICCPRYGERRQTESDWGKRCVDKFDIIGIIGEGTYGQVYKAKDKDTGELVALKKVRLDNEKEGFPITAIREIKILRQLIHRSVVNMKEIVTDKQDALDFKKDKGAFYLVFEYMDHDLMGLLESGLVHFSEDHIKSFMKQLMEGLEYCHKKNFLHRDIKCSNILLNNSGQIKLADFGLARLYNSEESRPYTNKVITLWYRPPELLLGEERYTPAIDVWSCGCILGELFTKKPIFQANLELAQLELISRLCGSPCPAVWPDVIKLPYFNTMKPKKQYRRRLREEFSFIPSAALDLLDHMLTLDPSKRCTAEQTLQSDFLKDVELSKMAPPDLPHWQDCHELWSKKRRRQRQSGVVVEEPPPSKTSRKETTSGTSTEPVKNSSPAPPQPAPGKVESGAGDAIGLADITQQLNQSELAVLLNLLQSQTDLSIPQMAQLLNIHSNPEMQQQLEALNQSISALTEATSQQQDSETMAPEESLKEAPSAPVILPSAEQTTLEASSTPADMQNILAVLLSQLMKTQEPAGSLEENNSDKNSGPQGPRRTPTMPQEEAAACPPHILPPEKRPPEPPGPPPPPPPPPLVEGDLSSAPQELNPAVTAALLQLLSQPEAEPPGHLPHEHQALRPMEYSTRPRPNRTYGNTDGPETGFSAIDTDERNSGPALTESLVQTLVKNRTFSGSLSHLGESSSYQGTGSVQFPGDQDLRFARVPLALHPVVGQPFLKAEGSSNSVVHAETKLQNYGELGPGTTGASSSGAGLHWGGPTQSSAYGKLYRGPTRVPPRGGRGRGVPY
T2 sequence (O75909 whole entry partner): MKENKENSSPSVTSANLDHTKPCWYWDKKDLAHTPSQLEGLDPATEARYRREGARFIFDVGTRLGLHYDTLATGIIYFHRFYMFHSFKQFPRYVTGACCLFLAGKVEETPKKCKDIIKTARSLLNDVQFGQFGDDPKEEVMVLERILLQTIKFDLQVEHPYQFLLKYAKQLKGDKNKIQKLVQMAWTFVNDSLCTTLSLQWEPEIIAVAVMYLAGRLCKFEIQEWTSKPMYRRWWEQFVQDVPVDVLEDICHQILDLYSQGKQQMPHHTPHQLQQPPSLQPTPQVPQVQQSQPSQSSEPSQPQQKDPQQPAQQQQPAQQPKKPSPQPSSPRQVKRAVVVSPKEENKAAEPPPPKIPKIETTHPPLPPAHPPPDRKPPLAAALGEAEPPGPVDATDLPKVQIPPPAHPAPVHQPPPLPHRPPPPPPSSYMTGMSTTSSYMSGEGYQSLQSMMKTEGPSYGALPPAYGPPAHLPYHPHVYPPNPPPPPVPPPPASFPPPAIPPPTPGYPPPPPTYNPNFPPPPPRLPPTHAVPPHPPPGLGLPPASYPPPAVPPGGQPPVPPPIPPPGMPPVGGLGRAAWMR

SMILES: Brc1cnn2c(NCc3nc4ccccc4[nH]3)nc(N3CCN4CCC3C4)nc12 (stereo not drawn) [Example 350, N-[(1H-benzimidazol-2-yl)methyl]-8-bromo-2-(1,4-diazabicyclo[3.2.1]octan-4-yl)pyrazolo[1,5-a][1,3,5]triazin-4-amine]
- IC50 (CDK2/CycE): 3390 nM
- IC50 ([1]; CAL-120, 96 h): 4.35 nM
- DC50 [2]: 6.55 nM
- (IC50 CDK12 high ATP) to (Degradation DC50 CDK12) ratio [2]: 1190

SMILES: CN(CC(C)(C)O)c1nc(NCc2nc3cc(Cl)c(Cl)cc3[nH]2)n2ncc(Br)c2n1 [Example 331, 1-[(8-bromo-4-{[(5,6-dichloro-1H-benzimidazol-2-yl)methyl]amino}pyrazolo[1,5-a][1,3,5]triazin-2-yl)(methyl)amino]-2-methylpropan-2-ol]
- IC50 (CDK2/CycE): 7310 nM
- IC50 ([1]; CAL-120, 96 h): 3.08 nM
- DC50 [2]: 6 nM
- (IC50 CDK12 high ATP) to (Degradation DC50 CDK12) ratio [2]: 58

SMILES: Cc1cc2nc(CNc3nc(N(C)CC(C)(C)O)nc4c(Br)cnn34)[nH]c2cc1C [Example 343, 1-[(8-bromo-4-{[(5,6-dimethyl-1H-benzimidazol-2-yl)methyl]amino}pyrazolo[1,5-a][1,3,5]triazin-2-yl)(methyl)amino]-2-methylpropan-2-ol]
- IC50 (CDK2/CycE): 1190 nM
- IC50 ([1]; CAL-120, 96 h): 1.82 nM
- DC50 [2]: 3.56 nM
- (IC50 CDK12 high ATP) to (Degradation DC50 CDK12) ratio [2]: 53

SMILES: CN(CC(C)(C)O)c1nc(NCc2nc3cc(F)c(F)cc3[nH]2)n2ncc(Br)c2n1 [Example 347]
- IC50 (CDK2/CycE): 9080 nM
- IC50 ([1]; CAL-120, 96 h): 2.47 nM
- DC50 [2]: 2.01 nM
- (IC50 CDK12 high ATP) to (Degradation DC50 CDK12) ratio [2]: 1086

SMILES: CN1CCN(c2nc(NCc3nc4cc(OC(F)(F)F)ccc4[nH]3)n3ncc(Br)c3n2)CC1 [Example 377, 8-bromo-2-(4-methylpiperazin-1-yl)-N-{[5-(trifluoromethoxy)-1H-benzimidazol-2-yl]methyl}pyrazolo[1,5-a][1,3,5]triazin-4-amine]
- IC50 (CDK2/CycE): 17100 nM
- IC50 ([1]; CAL-120, 96 h): 79.3 nM
- DC50 [2]: 20.2 nM
- (IC50 CDK12 high ATP) to (Degradation DC50 CDK12) ratio [2]: 252

SMILES: Brc1cnn2c(NCc3nc4ccccc4[nH]3)nc(N3CCN4CCC3CC4)nc12 [Example 349, N-[(1H-benzimidazol-2-yl)methyl]-8-bromo-2-(1,4-diazabicyclo[3.2.2]nonan-4-yl)pyrazolo[1,5-a][1,3,5]triazin-4-amine]
- IC50 (CDK2/CycE): 1820 nM
- IC50 ([1]; CAL-120, 96 h): 3.76 nM
- DC50 [2]: 9.89 nM
- (IC50 CDK12 high ATP) to (Degradation DC50 CDK12) ratio [2]: 877

SMILES: Fc1c(Cl)ccc2[nH]c(CNc3nc(N4CC5CCC(C4)N5)nc4c(C5CC5)cnn34)nc12 [Example 379, N-[(5-chloro-4-fluoro-1H-benzimidazol-2-yl)methyl]-8-cyclopropyl-2-(3,8-diazabicyclo[3.2.1]octan-3-yl)pyrazolo[1,5-a][1,3,5]triazin-4-amine]
- IC50 (CDK2/CycE): 14300 nM
- IC50 ([1]; CAL-120, 96 h): 1.71 nM
- DC50 [2]: 4.35 nM
- (IC50 CDK12 high ATP) to (Degradation DC50 CDK12) ratio [2]: 121

SMILES: Brc1cnn2c(NCc3nc4ccccc4[nH]3)nc(N3CC4CCC3CO4)nc12 (stereo not drawn) [Example 352, N-[(1H-benzimidazol-2-yl)methyl]-8-bromo-2-(2-oxa-5-azabicyclo[2.2.2]octan-5-yl)pyrazolo[1,5-a][1,3,5]triazin-4-amine]
- IC50 (CDK2/CycE): 2300 nM
- IC50 ([1]; CAL-120, 96 h): 8.05 nM
- DC50 [2]: 5.68 nM
- (IC50 CDK12 high ATP) to (Degradation DC50 CDK12) ratio [2]: 925

SMILES: FC(F)(F)c1ccc2[nH]c(CNc3nc(N4CCOCC4)nc4c(C5CC5)cnn34)nc2c1 [Example 322, 8-cyclopropyl-2-(morpholin-4-yl)-N-{[5-(trifluoromethyl)-1H-benzimidazol-2-yl]methyl}pyrazolo[1,5-a][1,3,5]triazin-4-amine]
- IC50 (CDK2/CycE): > 20000 nM
- IC50 ([1]; CAL-120, 96 h): 7.97 nM
- DC50 [2]: 4.57 nM
- (IC50 CDK12 high ATP) to (Degradation DC50 CDK12) ratio [2]: 266

SMILES: Fc1cc2nc(CNc3nc(N4CC5CCC(C4)N5)nc4c(Br)cnn34)[nH]c2cc1Cl [Example 348, 8-bromo-N-[(6-chloro-5-fluoro-1H-benzimidazol-2-yl)methyl]-2-(3,8-diazabicyclo[3.2.1]octan-3-yl)pyrazolo[1,5-a][1,3,5]triazin-4-amine]
- IC50 (CDK2/CycE): 13200 nM
- IC50 ([1]; 96 h): 1.14 nM
- DC50 [2]: 5.3 nM
- (IC50 CDK12 high ATP) to (Degradation DC50 CDK12) ratio [2]: 546

SMILES: Brc1cnn2c(NCc3nc4ccccc4[nH]3)nc(N3C[C@H]4CC[C@@H]3CO4)nc12 (single isomer, unassigned) [Example 383, N-[(1H-benzimidazol-2-yl)methyl]-8-bromo-2-{[1R or S-(1R*,4R*)]-2-oxa-5-azabicyclo[2.2.2]octan-5-yl}pyrazolo[1,5-a][1,3,5]triazin-4-amine]
- IC50 (CDK2/CycE): 3950 nM
- IC50 ([1]; CAL-120, 96 h): 11.4 nM
- DC50 [2]: 5.79 nM
- (IC50 CDK12 high ATP) to (Degradation DC50 CDK12) ratio [2]: 859

SMILES: FC(F)(F)Oc1ccc2[nH]c(CNc3nc(N4C[C@H]5CC[C@@H](C4)N5)nc4c(Br)cnn34)nc2c1 [Example 382, 8-bromo-2-[(1R,5S)-3,8-diazabicyclo[3.2.1]octan-3-yl]-N-{[5-(trifluoromethoxy)-1H-benzimidazol-2-yl]methyl}pyrazolo[1,5-a][1,3,5]triazin-4-amine]
- IC50 (CDK2/CycE): 14200 nM
- IC50 ([1]; CAL-120, 96 h): 12.4 nM
- DC50 [2]: 79.7 nM
- (IC50 CDK12 high ATP) to (Degradation DC50 CDK12) ratio [2]: 10

SMILES: CN1CCC(Oc2nc(NCc3nc4ccccc4[nH]3)n3ncc(Br)c3n2)CC1 [Example 389, N-[(1H-benzimidazol-2-yl)methyl]-8-bromo-2-[(1-methylpiperidin-4-yl)oxy]pyrazolo[1,5-a][1,3,5]triazin-4-amine]
- IC50 (CDK2/CycE): > 20000 nM
- IC50 ([1]; CAL-120, 96 h): 52.7 nM
- DC50 [2]: 33.5 nM
- (IC50 CDK12 high ATP) to (Degradation DC50 CDK12) ratio [2]: >597

SMILES: Fc1c(Cl)ccc2[nH]c(CNc3nc(N4CCOCC4)nc4c(Br)cnn34)nc12 [Example 372, 8-bromo-N-[(5-chloro-4-fluoro-1H-benzimidazol-2-yl)methyl]-2-(morpholin-4-yl)pyrazolo[1,5-a][1,3,5]triazin-4-amine]
- IC50 (CDK2/CycE): 3650 nM
- IC50 ([1]; CAL-120, 96 h): 2.94 nM
- DC50 [2]: 2.44 nM
- (IC50 CDK12 high ATP) to (Degradation DC50 CDK12) ratio [2]: 110

SMILES: Clc1cc2nc(CNc3nc(N4CC5CCC(C4)N5)nc4c(C5CC5)cnn34)[nH]c2cc1Cl [Example 324, 8-cyclopropyl-2-(3,8-diazabicyclo[3.2.1]octan-3-yl)-N-[(5,6-dichloro-1H-benzimidazol-2-yl)methyl]pyrazolo[1,5-a][1,3,5]triazin-4-amine]
- IC50 (CDK2/CycE): 13800 nM
- IC50 ([1]; CAL-120, 96 h): 1.17 nM
- DC50 [2]: 18 nM
- (IC50 CDK12 high ATP) to (Degradation DC50 CDK12) ratio [2]: 48

SMILES: Fc1cc2nc(CNc3nc(N4CCOCC4)nc4c(C(F)(F)F)cnn34)[nH]c2cc1F [Example 333, N-[(5,6-difluoro-1H-benzimidazol-2-yl)methyl]-2-(morpholin-4-yl)-8-(trifluoromethyl)pyrazolo[1,5-a][1,3,5]triazin-4-amine]
- IC50 (CDK2/CycE): > 20000 nM
- IC50 ([1]; CAL-120, 96 h): 3.1 nM
- DC50 [2]: 2.31 nM
- (IC50 CDK12 high ATP) to (Degradation DC50 CDK12) ratio [2]: 61

SMILES: Cc1cc2nc(CNc3nc(N4CCN(C)CC4)nc4c(Br)cnn34)[nH]c2cc1C [Example 342, 8-bromo-N-[(5,6-dimethyl-1H-benzimidazol-2-yl)methyl]-2-(4-methylpiperazin-1-yl)pyrazolo[1,5-a][1,3,5]triazin-4-amine]
- IC50 (CDK2/CycE): 2940 nM
- IC50 ([1]; CAL-120, 96 h): 1.52 nM
- DC50 [2]: 2.12 nM
- (IC50 CDK12 high ATP) to (Degradation DC50 CDK12) ratio [2]: 3129

SMILES: FC(F)(F)c1ccc2[nH]c(CNc3nc(N4CC5CCC(C4)N5)nc4c(C5CC5)cnn34)nc2c1 [Example 327, 8-cyclopropyl-2-(3,8-diazabicyclo[3.2.1]octan-3-yl)-N-{[5-(trifluoromethyl)-1H-benzimidazol-2-yl]methyl}pyrazolo[1,5-a][1,3,5]triazin-4-amine]
- IC50 (CDK2/CycE): > 18700 nM
- IC50 ([1]; CAL-120, 96 h): 2.28 nM
- DC50 [2]: 10 nM
- (IC50 CDK12 high ATP) to (Degradation DC50 CDK12) ratio [2]: 235

SMILES: CN1CCN(c2nc(NCc3nc4c(F)c(F)ccc4[nH]3)n3ncc(Cl)c3n2)CC1 [Example 358, 8-chloro-N-[(4,5-difluoro-1H-benzimidazol-2-yl)methyl]-2-(4-methylpiperazin-1-yl)pyrazolo[1,5-a][1,3,5]triazin-4-amine]
- IC50 (CDK2/CycE): > 20000 nM
- IC50 ([1]; CAL-120, 96 h): 4.05 nM
- DC50 [2]: 5.33 nM
- (IC50 CDK12 high ATP) to (Degradation DC50 CDK12) ratio [2]: 2182

SMILES: CN1CCN(c2nc(NCc3nc4cc(F)c(Cl)cc4[nH]3)n3ncc(Br)c3n2)CC1 [Example 337, 8-bromo-N-[(6-chloro-5-fluoro-1H-benzimidazol-2-yl)methyl]-2-(4-methylpiperazin-1-yl)pyrazolo[1,5-a][1,3,5]triazin-4-amine]
- IC50 (CDK2/CycE): 17800 nM
- IC50 ([1]; CAL-120, 96 h): 2.04 nM
- DC50 [2]: 1.85 nM
- (IC50 CDK12 high ATP) to (Degradation DC50 CDK12) ratio [2]: 4722

SMILES: Cc1cc2nc(CNc3nc(N4CC5CCC(C4)N5)nc4c(Br)cnn34)[nH]c2cc1C [Example 353, 8-bromo-2-(3,8-diazabicyclo[3.2.1]octan-3-yl)-N-[(5,6-dimethyl-1H-benzimidazol-2-yl)methyl]pyrazolo[1,5-a][1,3,5]triazin-4-amine]
- IC50 (CDK2/CycE): 2860 nM
- IC50 ([1]; CAL-120, 96 h): 1.41 nM
- DC50 [2]: 12.4 nM
- (IC50 CDK12 high ATP) to (Degradation DC50 CDK12) ratio [2]: 203
